Test results taken from BindingDB's records for doi:10.1021/jm960799i (Dupont Pharmaceuticals, 1997).
Where a name gives a salt, the structure may show the parent alone.

Target: Integrin alpha-IIb/beta-3 (Homo sapiens, UniProt P08514+P05106)
Experiment: In vitro inhibition of ADP-induced platelet aggregation in human platelet rich plasma (hPRP)

Integrin alpha-IIb/beta-3, sequence (P05106 27-788 limits assumed): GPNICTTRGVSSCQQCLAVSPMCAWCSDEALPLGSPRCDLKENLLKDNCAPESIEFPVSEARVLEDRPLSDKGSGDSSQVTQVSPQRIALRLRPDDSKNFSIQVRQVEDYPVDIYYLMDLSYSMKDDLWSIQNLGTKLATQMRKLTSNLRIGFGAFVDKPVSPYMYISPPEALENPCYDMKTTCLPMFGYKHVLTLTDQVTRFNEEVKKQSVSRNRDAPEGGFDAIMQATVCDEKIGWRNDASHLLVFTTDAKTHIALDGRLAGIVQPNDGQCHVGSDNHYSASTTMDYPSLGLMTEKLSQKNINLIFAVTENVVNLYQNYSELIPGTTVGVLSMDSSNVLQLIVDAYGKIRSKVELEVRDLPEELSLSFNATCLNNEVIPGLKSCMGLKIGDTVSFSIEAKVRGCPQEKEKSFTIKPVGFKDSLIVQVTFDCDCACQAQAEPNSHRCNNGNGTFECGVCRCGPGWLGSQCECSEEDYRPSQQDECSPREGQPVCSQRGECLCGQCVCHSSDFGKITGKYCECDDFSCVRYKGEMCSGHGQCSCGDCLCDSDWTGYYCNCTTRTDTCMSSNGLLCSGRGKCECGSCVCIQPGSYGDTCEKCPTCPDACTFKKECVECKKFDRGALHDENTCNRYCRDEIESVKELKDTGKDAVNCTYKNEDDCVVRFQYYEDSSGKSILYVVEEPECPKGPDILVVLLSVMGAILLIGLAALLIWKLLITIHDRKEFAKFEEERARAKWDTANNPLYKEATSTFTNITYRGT
Integrin alpha-IIb/beta-3, sequence (P08514 32-887 limits assumed): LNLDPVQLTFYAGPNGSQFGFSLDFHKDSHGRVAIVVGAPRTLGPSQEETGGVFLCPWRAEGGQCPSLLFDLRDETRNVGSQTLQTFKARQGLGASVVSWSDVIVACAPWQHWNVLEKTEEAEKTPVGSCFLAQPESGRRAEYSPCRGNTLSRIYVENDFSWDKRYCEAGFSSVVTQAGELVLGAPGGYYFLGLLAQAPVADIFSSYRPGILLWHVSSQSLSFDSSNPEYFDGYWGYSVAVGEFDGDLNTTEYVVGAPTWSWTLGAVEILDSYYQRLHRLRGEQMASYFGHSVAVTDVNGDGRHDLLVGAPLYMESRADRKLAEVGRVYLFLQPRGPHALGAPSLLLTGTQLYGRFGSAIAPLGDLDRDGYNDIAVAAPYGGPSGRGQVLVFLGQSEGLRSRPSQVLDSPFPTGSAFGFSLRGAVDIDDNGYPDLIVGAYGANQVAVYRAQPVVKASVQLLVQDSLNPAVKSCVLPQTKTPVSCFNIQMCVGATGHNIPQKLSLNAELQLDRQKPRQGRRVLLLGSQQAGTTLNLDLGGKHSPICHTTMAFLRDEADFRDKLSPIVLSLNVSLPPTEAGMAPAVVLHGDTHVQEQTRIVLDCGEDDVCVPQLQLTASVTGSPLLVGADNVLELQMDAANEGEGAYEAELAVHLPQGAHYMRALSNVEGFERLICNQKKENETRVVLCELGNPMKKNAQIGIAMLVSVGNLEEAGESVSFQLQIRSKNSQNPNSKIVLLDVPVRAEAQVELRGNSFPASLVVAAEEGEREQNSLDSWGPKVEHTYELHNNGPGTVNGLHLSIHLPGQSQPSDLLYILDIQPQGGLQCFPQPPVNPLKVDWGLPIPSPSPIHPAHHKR
Integrin alpha-IIb/beta-3, sequence (P08514 891-1039 limits assumed): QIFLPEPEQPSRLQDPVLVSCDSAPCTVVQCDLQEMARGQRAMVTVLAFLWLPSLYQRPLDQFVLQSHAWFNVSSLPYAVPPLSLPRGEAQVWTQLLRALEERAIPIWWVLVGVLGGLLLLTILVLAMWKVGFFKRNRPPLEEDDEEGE

For `N=C(N)c1ccc(C2=NOC(CC(=O)NC[C@H](NC(=O)OCCC(F)(F)F)C(=O)O)C2)cc1` (stereo partly drawn) [(S)-3-{2-[3-(4-Carbamimidoyl-phenyl)-4,5-dihydro-isoxazol-5-yl]-acetylamino}-2-(3,3,3-trifluoro-propoxycarbonylamino)-propionic acid; TFA], which IC50 is on record?
The IC50 was 31 nM.

With `N=C(N)c1ccc(C2=NOC(CC(=O)NC[C@H](NC(=O)CCc3ccccc3)C(=O)O)C2)cc1` (stereo partly drawn) [(S)-3-{2-[3-(4-Carbamimidoyl-phenyl)-4,5-dihydro-isoxazol-5-yl]-acetylamino}-2-(3-phenyl-propionylamino)-propionic acid; TFA] as the compound, how does the IC50 read?
The IC50 was 31 nM.

How did the IC50 turn out when `COC(=O)[C@H](CNC(=O)CC1CC(c2ccc(C(=N)N)cc2)=NO1)NC(=O)Nc1ccccc1` (stereo partly drawn) [(S)-3-{2-[3-(4-Carbamimidoyl-phenyl)-4,5-dihydro-isoxazol-5-yl]-acetylamino}-2-(3-phenyl-ureido)-propionic acid methyl ester; TFA] was run?
The IC50 was 69 nM.

With `CCc1ccc(C(=O)N[C@@H](CNC(=O)CC2CC(c3ccc(C(=N)N)cc3)=NO2)C(=O)O)cc1` (stereo partly drawn) [(S)-3-{2-[3-(4-Carbamimidoyl-phenyl)-4,5-dihydro-isoxazol-5-yl]-acetylamino}-2-(4-ethyl-benzoylamino)-propionic acid; TFA] as the compound, how does the IC50 read?
The IC50 was 49 nM.

With `N=C(N)c1ccc(C2=NOC(CC(=O)NC[C@H](NC(=O)c3ccc4ccccc4c3)C(=O)O)C2)cc1` (stereo partly drawn) [(S)-3-{2-[3-(4-Carbamimidoyl-phenyl)-4,5-dihydro-isoxazol-5-yl]-acetylamino}-2-[(naphthalene-2-carbonyl)-amino]-propionic acid; TFA] as the compound, how does the IC50 read?
Its IC50 is 61 nM.

How did the IC50 turn out when `CCCCCCOC(=O)N[C@@H](CNC(=O)CC1CC(c2ccc(C(=N)N)cc2)=NO1)C(=O)O` (stereo partly drawn) [(S)-3-{2-[3-(4-Carbamimidoyl-phenyl)-4,5-dihydro-isoxazol-5-yl]-acetylamino}-2-hexyloxycarbonylamino-propionic acid; TFA] was run?
Its IC50 is 41 nM.

Which IC50 does the source give for `CC(C)COC(=O)N[C@@H](CNC(=O)CC1CC(c2ccc(C(=N)N)cc2)=NO1)C(=O)O` (stereo partly drawn) [(S)-3-{2-[3-(4-Carbamimidoyl-phenyl)-4,5-dihydro-isoxazol-5-yl]-acetylamino}-2-isobutoxycarbonylamino-propionic acid; TFA] here?
Its IC50 is 47 nM.

For `CC(C)OC(=O)N[C@@H](CNC(=O)CC1CC(c2ccc(C(=N)N)cc2)=NO1)C(=O)O` (stereo partly drawn) [(S)-3-{2-[3-(4-Carbamimidoyl-phenyl)-4,5-dihydro-isoxazol-5-yl]-acetylamino}-2-isopropoxycarbonylamino-propionic acid; TFA], which IC50 is on record?
The IC50 was 130 nM.

`COC(=O)N[C@@H](CNC(=O)CC1CC(c2ccc(C(=N)N)cc2)=NO1)C(=O)O` (stereo partly drawn) [(S)-3-{2-[3-(4-Carbamimidoyl-phenyl)-4,5-dihydro-isoxazol-5-yl]-acetylamino}-2-methoxycarbonylamino-propionic acid; TFA] was tested. Which IC50 did it give?
The IC50 was 65 nM.

Which IC50 does the source give for `N=C(N)c1ccc(C2=NOC(CC(=O)NC[C@H](NC(=O)OCCc3ccccc3)C(=O)O)C2)cc1` (stereo partly drawn) [(S)-3-{2-[3-(4-Carbamimidoyl-phenyl)-4,5-dihydro-isoxazol-5-yl]-acetylamino}-2-phenethyloxycarbonylamino-propionic acid; TFA] here?
Its IC50 is 55 nM.

How did the IC50 turn out when `N=C(N)c1ccc(C2=NOC(CC(=O)N[C@@H](CC(=O)O)C(=O)N3CCSCC3)C2)cc1` (stereo partly drawn) [(S)-3-{2-[3-(4-Carbamimidoyl-phenyl)-4,5-dihydro-isoxazol-5-yl]-acetylamino}-4-oxo-4-thiomorpholin-4-yl-butyric acid; TFA] was run?
The IC50 was 360 nM.

Which IC50 does the source give for `N=C(N)c1ccc(C2=NOC(CC(=O)N[C@H](CC(=O)O)Cc3ccccc3)C2)cc1` (stereo partly drawn) [(S)-3-{2-[3-(4-Carbamimidoyl-phenyl)-4,5-dihydro-isoxazol-5-yl]-acetylamino}-4-phenyl-butyric acid; hydrochloride] here?
Its IC50 is 1400 nM.

For `N=C(N)c1ccc(C2=NOC(CC(=O)N[C@@H](CC(=O)O)C(=O)NCCc3ccccc3)C2)cc1` (stereo partly drawn) [(S)-3-{2-[3-(4-Carbamimidoyl-phenyl)-4,5-dihydro-isoxazol-5-yl]-acetylamino}-N-phenethyl-succinamic acid; TFA], which IC50 is on record?
The IC50 was 68 nM.

`N=C(N)c1ccc(C2=NO[C@@H](CC(=O)N[C@@H](CC(=O)O)c3cccnc3)C2)cc1` [(S)-3-{2-[(R)-3-(4-Carbamimidoyl-phenyl)-4,5-dihydro-isoxazol-5-yl]-acetylamino}-3-pyridin-3-yl-propionic acid; TFA] was tested. Which IC50 did it give?
The IC50 was 170 nM.

With `N=C(N)c1ccc(C2=NOC(CC(=O)N[C@@H](CC(=O)O)C(=O)N3CCC4CCC(CC4)C3)C2)cc1` (stereo partly drawn) [(S)-4-(3-Aza-bicyclo[4.2.2]dec-3-yl)-3-{2-[3-(4-carbamimidoyl-phenyl)-4,5-dihydro-isoxazol-5-yl]-acetylamino}-4-oxo-butyric acid; TFA] as the compound, how does the IC50 read?
Its IC50 is 210 nM.

Which IC50 does the source give for `N=C(N)c1ccc(C2=NOC(CC(=O)N[C@@H](CC(=O)O)C(=O)NCC34CC5CC(CC(C5)C3)C4)C2)cc1` (stereo partly drawn) [(S)-N-Adamantan-1-ylmethyl-3-{2-[3-(4-carbamimidoyl-phenyl)-4,5-dihydro-isoxazol-5-yl]-acetylamino}-succinamic acid; TFA] here?
Its IC50 is 95 nM.

For `N=C(N)c1ccc(C2=NOC(CC(=O)N[C@@H](CC(=O)O)C(=O)NC3C4CC5CC(C4)CC3C5)C2)cc1` (stereo partly drawn) [(S)-N-Adamantan-2-yl-3-{2-[3-(4-carbamimidoyl-phenyl)-4,5-dihydro-isoxazol-5-yl]-acetylamino}-succinamic acid; TFA], which IC50 is on record?
Its IC50 is 140 nM.

For `CCCCN(Cc1ccccc1)C(=O)[C@H](CC(=O)O)NC(=O)CC1CC(c2ccc(C(=N)N)cc2)=NO1` (stereo partly drawn) [(S)-N-Benzyl-N-butyl-3-{2-[3-(4-carbamimidoyl-phenyl)-4,5-dihydro-isoxazol-5-yl]-acetylamino}-succinamic acid; TFA], which IC50 is on record?
The IC50 was 180 nM.
